Read-outs that look alike come from different tables or passages of the source. Values belong to the compound of their own block, whether it stands above or below them.
Columns and labels:
[1] = biological target: receptors (Bioprint panel) (Homo sapiens, UniProt P41595); assay: biochemical; type: binding; settings: read-out: Reference Compound IC50
[2] = biological target: receptors (Bioprint panel) (Homo sapiens, UniProt P28335); assay: biochemical; type: binding; settings: read-out: Reference Compound IC50
Sequence of receptors (Bioprint panel) (Homo sapiens, UniProt P28335) (P28335 33-458): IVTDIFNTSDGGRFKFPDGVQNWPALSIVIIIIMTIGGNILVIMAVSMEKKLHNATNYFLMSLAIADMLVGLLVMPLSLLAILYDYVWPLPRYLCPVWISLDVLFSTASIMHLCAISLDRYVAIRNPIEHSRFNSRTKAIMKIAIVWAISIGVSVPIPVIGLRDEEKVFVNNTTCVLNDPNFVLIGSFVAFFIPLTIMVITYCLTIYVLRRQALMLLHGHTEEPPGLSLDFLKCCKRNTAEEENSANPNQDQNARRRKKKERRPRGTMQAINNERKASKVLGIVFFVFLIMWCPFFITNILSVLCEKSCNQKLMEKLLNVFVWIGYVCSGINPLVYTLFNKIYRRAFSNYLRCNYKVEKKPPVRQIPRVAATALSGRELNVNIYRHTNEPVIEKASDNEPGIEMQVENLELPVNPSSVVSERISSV

enzymes (Bioprint panel) [3] = biological target: T1, enzymes (Bioprint panel) (Homo sapiens, UniProt O00408); assay: biochemical; settings: PDE2A1 (h); read-out: Reference Compound IC50
T1 construct: other: PDE2A1 (h); 10 μM; PDE2A1 (h)

Sirtuin 6 (h) [4] = biological target: T2, Sirtuin 6 (h) (Homo sapiens, UniProt Q8N6T7); settings: reference compound; Fluorogenic HDAC 50 μM; 180 min/RT; cited from earlier work
T2 sequence (Q8N6T7 whole entry): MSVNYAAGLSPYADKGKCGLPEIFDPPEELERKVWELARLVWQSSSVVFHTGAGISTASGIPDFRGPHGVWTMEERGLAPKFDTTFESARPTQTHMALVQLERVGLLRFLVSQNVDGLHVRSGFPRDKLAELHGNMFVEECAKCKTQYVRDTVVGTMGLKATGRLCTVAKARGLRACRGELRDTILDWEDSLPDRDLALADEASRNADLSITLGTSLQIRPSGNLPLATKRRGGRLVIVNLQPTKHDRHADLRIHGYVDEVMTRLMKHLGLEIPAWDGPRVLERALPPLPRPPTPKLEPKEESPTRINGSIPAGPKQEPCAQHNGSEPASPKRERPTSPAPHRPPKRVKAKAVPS

Sirtuin 6 (h) [5] = biological target: T2, Sirtuin 6 (h); assay: Epigenetic enzyme assay, Sirtuins; type: biochemical; settings: Table 10; read-out: Reference IC50
FBXL10 (h) [6] = biological target: T3, FBXL10 (h) (Homo sapiens, UniProt Q8NHM5); settings: read-out: Reference IC50; cited from earlier work
T3 sequence (Q8NHM5 1-1336): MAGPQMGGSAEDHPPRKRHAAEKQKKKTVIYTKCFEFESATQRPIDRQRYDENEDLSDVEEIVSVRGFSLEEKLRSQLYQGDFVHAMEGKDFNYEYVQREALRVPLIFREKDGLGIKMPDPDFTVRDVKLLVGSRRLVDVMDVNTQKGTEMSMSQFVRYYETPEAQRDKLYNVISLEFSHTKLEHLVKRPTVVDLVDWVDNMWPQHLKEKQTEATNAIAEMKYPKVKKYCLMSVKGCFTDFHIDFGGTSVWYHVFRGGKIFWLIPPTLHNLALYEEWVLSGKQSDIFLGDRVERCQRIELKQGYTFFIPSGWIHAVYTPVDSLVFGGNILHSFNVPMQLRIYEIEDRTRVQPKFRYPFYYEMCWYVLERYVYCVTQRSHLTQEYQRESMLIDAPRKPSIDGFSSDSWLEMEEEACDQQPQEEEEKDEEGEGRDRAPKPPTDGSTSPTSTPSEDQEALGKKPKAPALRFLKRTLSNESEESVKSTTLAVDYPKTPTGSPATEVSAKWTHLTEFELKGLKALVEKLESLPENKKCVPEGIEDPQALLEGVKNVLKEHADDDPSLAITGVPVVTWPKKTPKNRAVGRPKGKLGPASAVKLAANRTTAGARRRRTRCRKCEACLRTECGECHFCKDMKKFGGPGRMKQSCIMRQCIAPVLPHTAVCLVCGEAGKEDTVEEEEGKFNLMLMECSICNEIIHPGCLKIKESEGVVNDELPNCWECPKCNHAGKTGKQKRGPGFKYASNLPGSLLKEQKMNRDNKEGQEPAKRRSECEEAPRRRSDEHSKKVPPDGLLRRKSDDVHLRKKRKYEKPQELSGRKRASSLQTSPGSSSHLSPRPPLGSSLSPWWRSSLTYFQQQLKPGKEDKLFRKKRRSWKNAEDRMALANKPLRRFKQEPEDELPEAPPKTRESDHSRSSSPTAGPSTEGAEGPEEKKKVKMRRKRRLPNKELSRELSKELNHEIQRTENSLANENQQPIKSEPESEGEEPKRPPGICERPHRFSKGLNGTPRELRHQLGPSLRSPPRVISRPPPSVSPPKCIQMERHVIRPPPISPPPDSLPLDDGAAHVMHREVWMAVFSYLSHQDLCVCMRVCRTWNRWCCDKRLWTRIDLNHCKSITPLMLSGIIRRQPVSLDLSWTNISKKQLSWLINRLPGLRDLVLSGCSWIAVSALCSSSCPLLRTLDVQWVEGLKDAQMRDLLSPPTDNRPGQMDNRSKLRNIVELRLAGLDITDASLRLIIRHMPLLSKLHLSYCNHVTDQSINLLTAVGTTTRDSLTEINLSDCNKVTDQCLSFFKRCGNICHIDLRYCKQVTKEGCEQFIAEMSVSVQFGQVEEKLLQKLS

JMJD2B (h) [7] = biological target: T4, JMJD2B (h) (Homo sapiens, UniProt O94953); assay: Epigenetic enzyme assay, Demethylases (KDMs); type: biochemical
T4 sequence (O94953 1-1096): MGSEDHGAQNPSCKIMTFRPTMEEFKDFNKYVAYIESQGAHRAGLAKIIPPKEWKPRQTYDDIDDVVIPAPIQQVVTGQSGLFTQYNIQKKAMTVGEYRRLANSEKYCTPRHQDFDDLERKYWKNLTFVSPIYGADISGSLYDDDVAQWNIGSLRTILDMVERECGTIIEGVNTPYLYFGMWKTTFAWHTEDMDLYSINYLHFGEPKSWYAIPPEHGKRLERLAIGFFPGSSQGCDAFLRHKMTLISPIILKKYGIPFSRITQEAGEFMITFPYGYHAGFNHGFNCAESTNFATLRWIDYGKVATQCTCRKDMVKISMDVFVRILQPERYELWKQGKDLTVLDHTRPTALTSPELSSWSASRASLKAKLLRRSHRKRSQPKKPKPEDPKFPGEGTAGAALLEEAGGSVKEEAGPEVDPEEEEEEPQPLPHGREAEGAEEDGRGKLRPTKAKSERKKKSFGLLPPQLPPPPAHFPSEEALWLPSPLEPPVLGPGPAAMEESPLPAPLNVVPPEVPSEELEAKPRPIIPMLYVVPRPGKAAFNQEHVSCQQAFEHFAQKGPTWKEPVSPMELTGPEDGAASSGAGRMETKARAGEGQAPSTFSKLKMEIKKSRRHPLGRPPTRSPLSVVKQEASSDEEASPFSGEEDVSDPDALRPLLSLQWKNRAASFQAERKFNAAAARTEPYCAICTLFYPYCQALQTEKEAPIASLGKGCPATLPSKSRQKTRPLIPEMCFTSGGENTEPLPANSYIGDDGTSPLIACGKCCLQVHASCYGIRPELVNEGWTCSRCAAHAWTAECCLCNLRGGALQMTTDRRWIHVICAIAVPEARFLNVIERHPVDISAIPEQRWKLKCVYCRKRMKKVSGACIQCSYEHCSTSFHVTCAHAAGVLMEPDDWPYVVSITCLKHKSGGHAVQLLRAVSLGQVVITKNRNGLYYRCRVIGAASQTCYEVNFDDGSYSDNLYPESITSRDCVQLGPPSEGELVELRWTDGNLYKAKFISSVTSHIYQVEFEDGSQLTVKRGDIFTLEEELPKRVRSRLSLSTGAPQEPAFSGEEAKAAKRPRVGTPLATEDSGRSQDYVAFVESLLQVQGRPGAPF

FBXL10 (h) [8] = biological target: T3, FBXL10 (h); assay: Epigenetic enzyme assay, Demethylases (KDMs); type: biochemical; settings: read-out: Reference IC50
JARID1A (h) [9] = biological target: T5, JARID1A (h) (Homo sapiens, UniProt P29375); settings: read-out: Reference IC50; cited from earlier work
T5 sequence (P29375 whole entry): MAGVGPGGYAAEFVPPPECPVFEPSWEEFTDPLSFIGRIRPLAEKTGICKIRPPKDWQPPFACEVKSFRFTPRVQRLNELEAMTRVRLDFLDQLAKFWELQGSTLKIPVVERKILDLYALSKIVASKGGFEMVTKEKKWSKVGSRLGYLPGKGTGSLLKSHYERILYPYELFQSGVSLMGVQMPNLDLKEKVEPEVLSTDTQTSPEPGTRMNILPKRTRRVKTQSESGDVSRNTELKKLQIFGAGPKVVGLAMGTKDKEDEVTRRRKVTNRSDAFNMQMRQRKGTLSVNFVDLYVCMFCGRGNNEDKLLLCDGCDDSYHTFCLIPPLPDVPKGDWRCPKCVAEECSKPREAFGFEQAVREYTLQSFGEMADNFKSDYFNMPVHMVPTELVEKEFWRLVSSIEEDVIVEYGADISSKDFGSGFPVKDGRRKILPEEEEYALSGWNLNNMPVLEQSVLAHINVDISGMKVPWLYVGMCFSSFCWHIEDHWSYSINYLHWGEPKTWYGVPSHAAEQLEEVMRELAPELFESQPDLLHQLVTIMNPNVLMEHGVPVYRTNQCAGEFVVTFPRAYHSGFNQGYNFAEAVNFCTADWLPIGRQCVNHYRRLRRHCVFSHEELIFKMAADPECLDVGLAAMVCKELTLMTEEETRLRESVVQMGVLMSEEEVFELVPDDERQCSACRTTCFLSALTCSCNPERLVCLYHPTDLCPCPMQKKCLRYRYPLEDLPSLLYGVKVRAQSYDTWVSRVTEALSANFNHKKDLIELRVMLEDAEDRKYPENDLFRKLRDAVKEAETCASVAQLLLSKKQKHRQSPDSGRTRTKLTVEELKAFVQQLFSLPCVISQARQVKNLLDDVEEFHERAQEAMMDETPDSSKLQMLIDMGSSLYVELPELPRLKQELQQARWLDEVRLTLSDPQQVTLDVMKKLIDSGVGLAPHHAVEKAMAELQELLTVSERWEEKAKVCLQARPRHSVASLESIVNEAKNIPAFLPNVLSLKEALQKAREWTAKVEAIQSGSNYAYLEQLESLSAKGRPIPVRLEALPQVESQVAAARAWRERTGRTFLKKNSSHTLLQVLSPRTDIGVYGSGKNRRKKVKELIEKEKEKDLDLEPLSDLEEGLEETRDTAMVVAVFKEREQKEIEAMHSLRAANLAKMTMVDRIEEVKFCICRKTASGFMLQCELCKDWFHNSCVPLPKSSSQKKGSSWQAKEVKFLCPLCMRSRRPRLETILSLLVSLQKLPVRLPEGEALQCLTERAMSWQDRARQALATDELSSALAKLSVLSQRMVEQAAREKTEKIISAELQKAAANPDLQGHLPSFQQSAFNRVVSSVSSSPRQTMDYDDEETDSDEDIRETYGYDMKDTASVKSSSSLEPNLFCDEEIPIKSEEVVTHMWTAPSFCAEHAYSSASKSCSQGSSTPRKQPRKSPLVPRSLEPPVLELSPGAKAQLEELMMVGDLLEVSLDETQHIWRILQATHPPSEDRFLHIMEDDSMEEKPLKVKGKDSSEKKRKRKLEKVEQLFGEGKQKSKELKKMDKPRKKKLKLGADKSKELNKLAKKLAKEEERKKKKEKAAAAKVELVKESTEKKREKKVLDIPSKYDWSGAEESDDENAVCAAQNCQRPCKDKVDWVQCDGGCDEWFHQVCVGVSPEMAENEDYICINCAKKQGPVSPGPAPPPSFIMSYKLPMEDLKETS

JMJD2B (h) [10] = biological target: T4, JMJD2B (h); settings: read-out: Reference IC50; cited from earlier work
JARID1A (h) [11] = biological target: T5, JARID1A (h); assay: Epigenetic enzyme assay, Demethylases (KDMs); type: biochemical
enzymes (Bioprint panel) [12] = biological target: enzymes (Bioprint panel) (Mus musculus, UniProt P29477); assay: biochemical; settings: inducible NOS; read-out: Reference Compound IC50
GCN5L2(h) [13] = biological target: T6, GCN5L2(h) (Homo sapiens, UniProt Q92830); settings: reference compound; biotin-H3K27me3 50 nM; 10 min/RT; LANCE; cited from earlier work
T6 sequence (Q92830 whole entry): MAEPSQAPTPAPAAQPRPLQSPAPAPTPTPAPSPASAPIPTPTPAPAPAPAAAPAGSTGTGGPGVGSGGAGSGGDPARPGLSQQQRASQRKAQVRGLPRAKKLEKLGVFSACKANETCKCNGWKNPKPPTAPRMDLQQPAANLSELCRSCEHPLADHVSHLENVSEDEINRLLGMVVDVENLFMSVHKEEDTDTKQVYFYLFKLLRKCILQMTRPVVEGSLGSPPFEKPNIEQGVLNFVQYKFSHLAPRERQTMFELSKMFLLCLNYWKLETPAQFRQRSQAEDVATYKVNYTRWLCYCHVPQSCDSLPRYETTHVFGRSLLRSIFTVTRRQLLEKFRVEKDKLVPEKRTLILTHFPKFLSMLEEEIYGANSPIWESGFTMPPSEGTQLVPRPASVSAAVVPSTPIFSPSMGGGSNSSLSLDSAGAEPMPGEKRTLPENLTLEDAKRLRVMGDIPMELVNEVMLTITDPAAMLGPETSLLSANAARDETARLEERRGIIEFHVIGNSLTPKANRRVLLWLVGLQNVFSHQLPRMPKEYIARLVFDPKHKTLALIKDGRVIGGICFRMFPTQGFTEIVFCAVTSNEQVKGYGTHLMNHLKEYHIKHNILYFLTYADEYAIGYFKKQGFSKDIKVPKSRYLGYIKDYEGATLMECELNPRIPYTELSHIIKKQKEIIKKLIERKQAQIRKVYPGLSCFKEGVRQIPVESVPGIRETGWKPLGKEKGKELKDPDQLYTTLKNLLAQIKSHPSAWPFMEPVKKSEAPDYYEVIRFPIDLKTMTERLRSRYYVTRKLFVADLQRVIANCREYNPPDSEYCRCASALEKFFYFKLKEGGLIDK

GCN5L2(h) [14] = biological target: T6, GCN5L2(h); assay: Epigenetic enzyme assay, Histone acetyltransferases (HATs); type: biochemical; settings: Table 10; read-out: Reference IC50
BRD3(2) (h) bromodomain [15] = biological target: T7, BRD3(2) (h) bromodomain (Homo sapiens, UniProt Q15059); settings: ligand biotin-H4 di acetyl Lys 5/8 100 nM; 30 min/RT; AlphaScreen; read-out: Reference IC50; cited from earlier work
T7 construct: Bromodomain
T7 sequence (Q15059 306-415 limits assumed): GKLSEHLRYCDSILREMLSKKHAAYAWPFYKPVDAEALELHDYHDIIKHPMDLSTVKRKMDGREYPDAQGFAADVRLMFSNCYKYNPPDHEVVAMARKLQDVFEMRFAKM

BRD3(2) (h) bromodomain [16] = biological target: T7, BRD3(2) (h) bromodomain; assay: Epigenetic binding assay, Bromodomain; settings: Table 4; read-out: Reference IC50
enzymes (Bioprint panel) [17] = assay: biochemical; settings: COMT (catechol- O-methyl transferase); read-out: Reference Compound IC50
[18] = biological target: receptors (Bioprint panel) (Homo sapiens, UniProt P35348); assay: biochemical; type: binding; settings: read-out: Reference Compound IC50
Sequence of receptors (Bioprint panel) (Homo sapiens, UniProt P35348) (P35348 whole entry): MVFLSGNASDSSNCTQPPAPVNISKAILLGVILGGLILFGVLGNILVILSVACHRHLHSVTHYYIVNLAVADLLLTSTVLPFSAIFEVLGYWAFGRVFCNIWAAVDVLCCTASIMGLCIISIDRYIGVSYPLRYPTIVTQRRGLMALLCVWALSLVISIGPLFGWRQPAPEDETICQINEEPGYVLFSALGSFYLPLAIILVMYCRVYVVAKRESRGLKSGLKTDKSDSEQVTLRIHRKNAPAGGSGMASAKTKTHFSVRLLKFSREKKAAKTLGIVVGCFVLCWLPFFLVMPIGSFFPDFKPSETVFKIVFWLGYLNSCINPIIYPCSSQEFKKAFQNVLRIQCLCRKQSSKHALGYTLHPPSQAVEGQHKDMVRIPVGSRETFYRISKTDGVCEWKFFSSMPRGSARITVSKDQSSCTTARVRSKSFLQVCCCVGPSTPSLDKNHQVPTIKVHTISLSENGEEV

[19] = biological target: CYP2B6 (Bupropion Substrate) (Homo sapiens, UniProt P20813); assay: Cytochrome P450 Inhibition (CYP panel)
Sequence of CYP2B6 (Bupropion Substrate) (P20813 whole entry): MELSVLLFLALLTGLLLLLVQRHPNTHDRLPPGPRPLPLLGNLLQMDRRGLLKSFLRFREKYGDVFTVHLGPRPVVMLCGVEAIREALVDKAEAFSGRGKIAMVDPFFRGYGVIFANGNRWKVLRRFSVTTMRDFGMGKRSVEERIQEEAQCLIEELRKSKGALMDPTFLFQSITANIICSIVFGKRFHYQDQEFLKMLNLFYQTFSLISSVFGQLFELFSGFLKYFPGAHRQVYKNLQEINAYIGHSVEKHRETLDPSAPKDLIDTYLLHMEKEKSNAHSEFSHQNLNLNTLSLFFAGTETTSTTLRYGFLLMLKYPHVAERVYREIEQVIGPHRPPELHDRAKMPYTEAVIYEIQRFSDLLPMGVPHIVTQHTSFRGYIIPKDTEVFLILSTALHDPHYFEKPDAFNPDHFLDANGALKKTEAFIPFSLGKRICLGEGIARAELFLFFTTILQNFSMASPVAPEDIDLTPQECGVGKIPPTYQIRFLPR

[20] = biological target: receptors (Bioprint panel) (Homo sapiens, UniProt Q9GZV3); assay: biochemical; type: binding; settings: choline transporter (CHT1) (h) (antagonist radioligand); read-out: Reference Compound IC50
[21] = biological target: receptors (Bioprint panel) (Homo sapiens, UniProt Q9H3N8); assay: biochemical; type: binding; settings: read-out: Reference Compound IC50
enzymes (Bioprint panel) [22] = biological target: T8, enzymes (Bioprint panel) (UniProt A0ABM2YAB8); assay: biochemical; settings: read-out: Reference Compound IC50
T8 construct: other: MT3 (ML2) (agonist radioligand); 10 μM
T8 sequence (A0ABM2YAB8 entry or part of it): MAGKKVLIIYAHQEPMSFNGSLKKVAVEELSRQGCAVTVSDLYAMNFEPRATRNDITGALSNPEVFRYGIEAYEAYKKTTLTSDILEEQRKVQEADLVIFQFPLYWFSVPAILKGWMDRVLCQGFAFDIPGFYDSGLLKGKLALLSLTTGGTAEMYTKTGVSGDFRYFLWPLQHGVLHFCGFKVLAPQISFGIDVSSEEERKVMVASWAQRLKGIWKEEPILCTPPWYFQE

[23] = biological target: receptors (Bioprint panel) (Homo sapiens, UniProt P14867); assay: biochemical; type: binding
enzymes (Bioprint panel) [24] = biological target: T9, enzymes (Bioprint panel); assay: biochemical; settings: read-out: Reference Compound IC50
T9 construct: other: ATPase (Na+/K+); 10 μM

[25] = biological target: receptors (Bioprint panel) (Homo sapiens, UniProt P41597); assay: biochemical; type: binding; settings: CHEMOKINES CCR2 (h) (agonist radioligand); read-out: Reference Compound IC50
Sequence of receptors (Bioprint panel) (Homo sapiens, UniProt P41597) (P41597 whole entry): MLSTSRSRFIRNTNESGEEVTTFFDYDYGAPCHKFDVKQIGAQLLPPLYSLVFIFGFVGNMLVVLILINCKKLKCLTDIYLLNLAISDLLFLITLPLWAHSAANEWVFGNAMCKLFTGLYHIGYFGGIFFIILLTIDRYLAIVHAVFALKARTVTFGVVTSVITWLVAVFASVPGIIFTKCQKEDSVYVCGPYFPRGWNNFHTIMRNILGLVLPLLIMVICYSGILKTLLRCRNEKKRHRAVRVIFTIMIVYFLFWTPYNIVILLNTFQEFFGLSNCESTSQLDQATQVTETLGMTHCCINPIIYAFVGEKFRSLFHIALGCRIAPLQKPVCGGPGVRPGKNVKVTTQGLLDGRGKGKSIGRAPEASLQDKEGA

Compound: COc1cc(CC(C)N)c(OC)cc1I (racemic) [(±)DOI]
IC50 [1]: 6.7 nM | IC50 [2]: 0.24 nM

Compound: CCCCCC[C@@H]([C@@H](C)O)n1cnc2c(N)ncnc21 (racemic) [EHNA]
IC50 (enzymes (Bioprint panel) [3]): 1200 nM

Compound: NC(=O)C1CCCc2c1[nH]c1ccc(Cl)cc21 (racemic) [EX-527, reference compound]
IC50 (Sirtuin 6 (h) [4]): 550000 nM | IC50 (Sirtuin 6 (h) [5]): 550000 nM

Compound: O=C(O)c1ccnc(C(=O)O)c1 [2,4 PDCA, reference compound]
IC50 (FBXL10 (h) [6]): 610 nM | IC50 (JMJD2B (h) [7]; read-out: IC50): 95 nM | IC50 (JMJD2B (h) [7]; read-out: Reference IC50): 140 nM | IC50 (FBXL10 (h) [8]): 610 nM | IC50 (JARID1A (h) [9]): 180 nM | IC50 (JMJD2B (h) [10]): 140 nM | IC50 (JARID1A (h) [11]; read-out: IC50): 99 nM | IC50 (JARID1A (h) [11]; read-out: Reference IC50): 180 nM

Compound: CC(=N)NCc1cccc(CN)c1 [1400 W]
IC50 (enzymes (Bioprint panel) [12]): 29 nM

Compound: CCCCCCCCCCCCCCCc1cccc(O)c1C(=O)O [Anacardic Acid, reference compound]
IC50 (GCN5L2(h) [13]): 4700 nM | IC50 (GCN5L2(h) [14]): 4700 nM

Compound: COc1ccccc1S(=O)(=O)Nc1ccc2c(c1)CN(C)C(=O)N2 [PFI-1, reference compound]
IC50 (BRD3(2) (h) bromodomain [15]): 790 nM | IC50 (BRD3(2) (h) bromodomain [16]): 790 nM

Compound: O=C(c1cc(O)c(O)c([N+](=O)[O-])c1)c1ccccc1F [Ro 41-0960]
IC50 (enzymes (Bioprint panel) [17]): 61 nM

Compound: COc1cccc(OC)c1OCCNCC1COc2ccccc2O1 (stereo not drawn) [WB 4101]
IC50 [18]: 0.27 nM

IC50 [19]: 390 nM
Compound: COC(=O)[C@H](c1ccccc1Cl)N1CCc2sccc2C1 [clopidogrel, reference compound]

Compound: C[N+]1(C)CCOC(O)(c2ccc(-c3ccc(C4(O)C[N+](C)(C)CCO4)cc3)cc2)C1 (stereo not drawn) [hemicholinium-3]
IC50 [20]: 4.6 nM

Compound: N=C(N)SCCc1cnc[nH]1 [imetit]
IC50 [21]: 4.7 nM

Compound: COc1ccc2[nH]cc(CCNC(C)=O)c2c1 [melatonin]
IC50 (enzymes (Bioprint panel) [22]): 160 nM

Compound: NCc1cc(=O)[nH]o1 [muscimol]
IC50 [23]: 53 nM

Compound: C[C@@H]1O[C@@H](O[C@H]2C[C@@H](O)[C@]3(CO)[C@H]4[C@H](O)C[C@]5(C)[C@@H](C6=CC(=O)OC6)CC[C@]5(O)[C@@H]4CC[C@]3(O)C2)[C@H](O)[C@H](O)[C@H]1O [ouabain]
IC50 (enzymes (Bioprint panel) [24]): 250 nM

Compound: MCP-1
IC50 [25]: 0.087 nM

From patent US11331299B2, “Medicinal use of serrulatane diterpenes” (The University of Sydney, priority 2016, dated 2022)
